IC50 data for 34 compounds are collected here from US10519177B2, “Heterocyclic compounds and uses thereof” (Plexxikon Inc., priority 2013, dated 2019).

In this test the test system is bromodomain. Put plainly: at least one of the bromodomain cell assays of Example 57. It is filed as cell-based. To be noted: at least one of the bromodomain cell assays described in Example 57; read-out: IC50 in at least one of the bromodomain cell assays.

What is called IC50 is the point on the concentration scale where inhibition reaches its midpoint. For `Cc1noc(C)c1-c1cnc2c(-c3ccc(B(O)O)cc3)cn(CC3CCCCC3)c2c1` [P-0709, [4-[1-(cyclohexylmethyl)-6-(3,5-dimethylisoxazol-4-yl)pyrrolo[3,2-b]pyridin-3-yl]phenyl]boronic acid], the IC50 was less than 10 µM. `Cc1noc(C)c1-c1cnc2c(F)cn([C@@H](c3ccccc3)c3ccccn3)c2c1` [P-0712, 4-[3-fluoro-1-[(S)-phenyl(2-pyridyl)methyl]pyrrolo[3,2-b]pyridin-6-yl]-3,5-dimethyl-isoxazole]: the IC50 is less than 10 µM.

Turning to `Cc1noc(C)c1-c1cnc2c(-c3ccc(CO)cc3)cn([C@@H](c3ccccc3)c3ccccn3)c2c1` [P-0713, [4-[6-(3,5-dimethylisoxazol-4-yl)-1-[(S)-phenyl(2-pyridyl)methyl]pyrrolo[3,2-b]pyridin-3-yl]phenyl]methanol], the IC50 was less than 10 µM.

With `Cc1ccc(-c2cn([C@@H](c3ccccc3)c3ccccn3)c3cc(-c4c(C)noc4C)cnc23)cc1` [P-0714, 3,5-dimethyl-4-[1-[(S)-phenyl(2-pyridyl)methyl]-3-(p-tolyl)pyrrolo[3,2-b]pyridin-6-yl]isoxazole], the IC50 was less than 10 µM. For the compound `COC(=O)c1ccc(-c2cn([C@@H](c3ccccc3)c3ccccn3)c3cc(-c4c(C)noc4C)cnc23)cc1` [P-0715, methyl 4-[6-(3,5-dimethylisoxazol-4-yl)-1-[(S)-phenyl(2-pyridyl)methyl]pyrrolo[3,2-b]pyridin-3-yl]benzoate], the IC50 was less than 10 µM. As to `CCOC(=O)c1ccc(-c2cn([C@@H](c3ccccc3)c3ccccn3)c3cc(-c4c(C)noc4C)cnc23)cc1` [P-0716, ethyl 4-[6-(3,5-dimethylisoxazol-4-yl)-1-[(S)-phenyl(2-pyridyl)methyl]pyrrolo[3,2-b]pyridin-3-yl]benzoate], the IC50 was less than 10 µM. For the compound `Cc1noc(C)c1-c1cnc2c(-c3ccc(C(=O)OC(C)C)cc3)cn([C@@H](c3ccccc3)c3ccccn3)c2c1` [P-0717, isopropyl 4-[6-(3,5-dimethylisoxazol-4-yl)-1-[(S)-phenyl(2-pyridyl)methyl]pyrrolo[3,2-b]pyridin-3-yl]benzoate], the IC50 was less than 10 µM. As for `Cc1noc(C)c1-c1cnc2c(-c3ccc(B(O)O)cc3)cn([C@@H](c3ccccc3)c3ccccn3)c2c1` [P-0718, [4-[6-(3,5-dimethylisoxazol-4-yl)-1-[(S)-phenyl(2-pyridyl)methyl]pyrrolo[3,2-b]pyridin-3-yl]phenyl]boronic acid], the concentration for half-maximal inhibition (IC50) was less than 10 µM. As to `Cc1noc(C)c1-c1cnc2c(-c3ccc([N+](=O)[O-])nc3)cn([C@@H](c3ccccc3)c3ccccn3)c2c1` [P-0719, 3,5-dimethyl-4-[3-(6-nitro-3-pyridyl)-1-[(S)-phenyl(2-pyridyl)methyl]pyrrolo[3,2-b]pyridin-6-yl]isoxazole], the IC50 is less than 10 µM. Turning to `Cc1noc(C)c1-c1cnc2c(-c3ccc(C#N)nc3)cn([C@@H](c3ccccc3)c3ccccn3)c2c1` [P-0720, 5-[6-(3,5-dimethylisoxazol-4-yl)-1-[(S)-phenyl(2-pyridyl)methyl]pyrrolo[3,2-b]pyridin-3-yl]pyridine-2-carbonitrile], the IC50 is less than 10 µM. To `Cc1noc(C)c1-c1cnc2c(-c3cnn(C)c3)cn([C@@H](c3ccccc3)c3ccccn3)c2c1` [P-0721, 3,5-dimethyl-4-[3-(1-methylpyrazol-4-yl)-1-[(S)-phenyl(2-pyridyl)methyl]pyrrolo[3,2-b]pyridin-6-yl]isoxazole] belongs less than 10 µM.

For `Cc1noc(C)c1-c1cnc2c(F)cn([C@H](c3ccccc3)c3ccccn3)c2c1` [P-0723, 4-[3-fluoro-1-[(R)-phenyl(2-pyridyl)methyl]pyrrolo[3,2-b]pyridin-6-yl]-3,5-dimethyl-isoxazole], the IC50 is less than 10 µM.

As to `Cc1noc(C)c1-c1cnc2c(-c3ccc(CO)cc3)cn([C@H](c3ccccc3)c3ccccn3)c2c1` [P-0724, [4-[6-(3,5-dimethylisoxazol-4-yl)-1-[(R)-phenyl(2-pyridyl)methyl]pyrrolo[3,2-b]pyridin-3-yl]phenyl]methanol], the half-maximal inhibitory concentration (IC50) is less than 10 µM. Take `Cc1ccc(-c2cn([C@H](c3ccccc3)c3ccccn3)c3cc(-c4c(C)noc4C)cnc23)cc1` [P-0725, 3,5-dimethyl-4-[1-[(R)-phenyl(2-pyridyl)methyl]-3-(p-tolyl)pyrrolo[3,2-b]pyridin-6-yl]isoxazole]: the IC50 was less than 10 µM.

In the case of `COC(=O)c1ccc(-c2cn([C@H](c3ccccc3)c3ccccn3)c3cc(-c4c(C)noc4C)cnc23)cc1` [P-0726, methyl 4-[6-(3,5-dimethylisoxazol-4-yl)-1-[(R)-phenyl(2-pyridyl)methyl]pyrrolo[3,2-b]pyridin-3-yl]benzoate], the IC50 was less than 10 µM. In the case of `CCOC(=O)c1ccc(-c2cn([C@H](c3ccccc3)c3ccccn3)c3cc(-c4c(C)noc4C)cnc23)cc1` [P-0727, ethyl 4-[6-(3,5-dimethylisoxazol-4-yl)-1-[(R)-phenyl(2-pyridyl)methyl]pyrrolo[3,2-b]pyridin-3-yl]benzoate] it was less than 10 µM; in that of `Cc1noc(C)c1-c1cnc2c(-c3ccc(C(=O)OC(C)C)cc3)cn([C@H](c3ccccc3)c3ccccn3)c2c1` [P-0728, isopropyl 4-[6-(3,5-dimethylisoxazol-4-yl)-1-[(R)-phenyl(2-pyridyl)methyl]pyrrolo[3,2-b]pyridin-3-yl]benzoate], less than 10 µM; in that of `Cc1noc(C)c1-c1cnc2c(-c3ccc(B(O)O)cc3)cn([C@H](c3ccccc3)c3ccccn3)c2c1` [P-0729, [4-[6-(3,5-dimethylisoxazol-4-yl)-1-[(R)-phenyl(2-pyridyl)methyl]pyrrolo[3,2-b]pyridin-3-yl]phenyl]boronic acid], less than 10 µM. As to `Cc1noc(C)c1-c1cnc2c(-c3ccc([N+](=O)[O-])nc3)cn([C@H](c3ccccc3)c3ccccn3)c2c1` [P-0730, 3,5-dimethyl-4-[3-(6-nitro-3-pyridyl)-1-[(R)-phenyl(2-pyridyl)methyl]pyrrolo[3,2-b]pyridin-6-yl]isoxazole], the IC50 is less than 10 µM.

As for `Cc1noc(C)c1-c1cnc2c(-c3ccc(C#N)nc3)cn([C@H](c3ccccc3)c3ccccn3)c2c1` [P-0731, 5-[6-(3,5-dimethylisoxazol-4-yl)-1-[(R)-phenyl(2-pyridyl)methyl]pyrrolo[3,2-b]pyridin-3-yl]pyridine-2-carbonitrile], the IC50 is less than 10 µM. As to `Cc1noc(C)c1-c1cnc2c(-c3cnn(C)c3)cn([C@H](c3ccccc3)c3ccccn3)c2c1` [P-0732, 3,5-dimethyl-4-[3-(1-methylpyrazol-4-yl)-1-[(R)-phenyl(2-pyridyl)methyl]pyrrolo[3,2-b]pyridin-6-yl]isoxazole], the IC50 is less than 10 µM. To `Cc1noc(C)c1-c1cnc2[nH]cc(C(c3ccccn3)c3ccccn3)c2c1` [P-0733, 4-[3-[bis(2-pyridyl)methyl]-1H-pyrrolo[2,3-b]pyridin-5-yl]-3,5-dimethyl-isoxazole] belongs less than 10 µM; to `Cc1noc(C)c1-c1cnc2c(c1)c(C(c1ccccn1)c1ccccn1)cn2C(F)F` [P-0734, 4-[3-[bis(2-pyridyl)methyl]-1-(difluoromethyl)pyrrolo[2,3-b]pyridin-5-yl]-3,5-dimethyl-isoxazole], less than 10 µM. In the case of `Cc1noc(C)c1-c1cnc2c(c1)c(C(c1ccccn1)c1ccccn1)cn2-c1ccc(C(=O)O)cc1` [P-0735, 4-[3-[bis(2-pyridyl)methyl]-5-(3,5-dimethylisoxazol-4-yl)pyrrolo[2,3-b]pyridin-1-yl]benzoic acid], the IC50 was less than 10 µM. As to `Cc1noc(C)c1-c1cnc2c(c1)c(C(c1ccccn1)c1ccccn1)cn2-c1ccc(CO)cc1` [P-0736, [4-[3-[bis(2-pyridyl)methyl]-5-(3,5-dimethylisoixazol-4-yl)pyrrolo[2,3-b]pyridin-1-yl]phenyl]methanol], the IC50 was less than 10 µM.

With `Cc1noc(C)c1-c1cnc2c(c1)c(C(c1ccccn1)c1ccccn1)cn2-c1ccc(C(=O)O)cn1` [P-0737, 6-[3-[bis(2-pyridyl)methyl]-5-(3,5-dimethylisoxazol-4-yl)pyrrolo[2,3-b]pyridin-1-yl]pyridine-3-carboxylic acid], the IC50 is less than 10 µM. On to `Cc1noc(C)c1-c1cnc2[nH]cc(C(c3ccccc3)c3ccccc3)c2c1` [P-0738, 4-(3-benzhydryl-1H-pyrrolo[2,3-b]pyridin-5-yl)-3,5-dimethyl-isoxazole], for which the concentration for half-maximal inhibition (IC50) is less than 10 µM.

With `Cc1noc(C)c1-c1cnc2c(c1)c(C(c1ccccc1)c1ccccc1)cn2C(F)F` [P-0739, 4-[3-benzhydryl-1-(difluoromethyl)pyrrolo[2,3-b]pyridin-5-yl]-3,5-dimethyl-isoxazole], the IC50 was less than 10 µM. Take `Cc1noc(C)c1-c1cnc2c(c1)c(C(c1ccccc1)c1ccccc1)cn2-c1ccc(C(=O)O)cc1` [P-0740, 4-[3-benzhydryl-5-(3,5-dimethylisoxazol-4-yl)pyrrolo[2,3-b]pyridin-1-yl]benzoic acid]: the IC50 is less than 10 µM.

On to `Cc1noc(C)c1-c1cnc2c(c1)c(C(c1ccccc1)c1ccccc1)cn2-c1ccc(CO)cc1` [P-0741, [4-[3-benzhydryl-5-(3,5-dimethylisoxazol-4-yl)pyrrolo[2,3-b]pyridin-1-yl]phenyl]methanol], for which the IC50 was less than 10 µM. Consider `Cc1noc(C)c1-c1cnc2c(c1)c(C(c1ccccc1)c1ccccc1)cn2-c1ccc(C(=O)O)cn1` [P-0742, 6-[3-benzhydryl-5-(3,5-dimethylisoxazol-4-yl)pyrrolo[2,3-b]pyridin-1-yl]pyridine-3-carboxylic acid], for which the half-inhibitory concentration (IC50) was less than 10 µM. For the compound `Cc1noc(C)c1-c1ccc2c(-c3ccc(C(=O)O)cc3)cn(CC3CCC(F)(F)CC3)c2c1` [P-0745, 4-[1-[(4,4-difluorocyclohexyl)methyl]-6-(3,5-dimethylisoxazol-4-yl)indol-3-yl]benzoic acid], the IC50 is less than 10 µM. `COc1cc(-c2cn(CC3CCC(F)(F)CC3)c3cc(-c4c(C)noc4C)ccc23)ccc1C(=O)O` [P-0746, 4-[1-[(4,4-difluorocyclohexyl)methyl]-6-(3,5-dimethylisoxazol-4-yl)indol-3-yl]-2-methoxy-benzoic acid]: the IC50 is less than 10 µM. In the case of `Cc1noc(C)c1-c1ccc2c(-c3ccc(P(=O)(O)O)cc3)cn(CC3CCC(F)(F)CC3)c2c1` [P-0747, [4-[1-[(4,4-difluorocyclohexyl)methyl]-6-(3,5-dimethylisoxazol-4-yl)indol-3-yl]phenyl]phosphonic acid] it was less than 10 µM.
